Some results are limits rather than exact numbers.

Test [1] concerns the target T1, ABL1 (64-515) (Homo sapiens (Human), UniProt P00519). Put plainly: Caliper ABL1 (64-515) assay (microfluidic mobility shift). Type of test: biochemical.
Protocol: Expression and purification of human ABL was performed using standard expression purification procedures. […] The His-ABL was expressed in E. coli BL21 (DE3) and the ABL proteins were isolated by Ni-affinity on a Ni-NTA column (Qiagen). The His-tag was removed by PreScission protease (GE Healthcare) and the non-phosphoprylated ABL further purified on a Mono Q HR 10/10 (GE Healthcare, mono-phosphorylated ABL is about 10-20% of total ABL protein) and HiLoad 16/60 Superdex 200 size exclusion column (GE Healthcare).
All assays were performed in 384-well microtiter plates. Each assay plate contained 8-point serial dilutions for 40 test compounds, as well as four 8-point serial dilutions of staurosporine as a reference compound, plus 16 high and 16 low controls. Liquid handling and incubation steps were done on a Thermo CatX workstation equipped with Innovadyne Nanodrop Express. Between pipetting steps, tips were cleaned in wash cycles using wash buffer.
The assay plates were prepared by addition of 50 nL per well of compound solution in 90% DMSO. […] Plates with terminated kinase reactions were transferred to the Caliper LC3000 workstations for reading. Phosphorylated and unphosphorylated peptides were separated using the Caliper microfluidic mobility shift technology. Briefly, samples from terminated kinase reactions were applied to the chip. Analytes are transported through the chip by constant buffer flow and the migration of the substrate peptide is monitored by the fluorescence signal of its label. Phosphorylated peptide (product) and unphosphorylated peptide (substrate) are separated in an electric field by their charge/mass ratio. Kinase activities were calculated from the amounts of formed phospho-peptide. IC50 values were determined from percent inhibition values at different compound concentrations by non-linear regression analysis.
Test compounds were dissolved in DMSO (10 mM) and transferred into 1.4 mL flat bottom or V-shaped Matrix tubes carrying a unique 2D matrix. The stock solutions were stored at +2° C. if not used immediately. For the test procedure the vials were defrosted and identified by a scanner whereby a working sheet was generated that guided the subsequent working steps.
Compound dilutions were made in 96-well plates. This format enabled the assay of maximally 40 individual test compounds at 8 concentrations (single points) including 4 reference compounds. The dilution protocol included the production of “pre-dilution plates”, “master plates” and “assay plates”.
Polypropylene 96-well plates were used as pre-dilution plates. […] All dilution steps were done on a HamiltonSTAR robot.
These plates were used directly for the assay which was performed in a total volume of 9.05 μL.
The target in test [2] is T1, ABL1 (64-515). Put plainly: Radio ABL1 (64-515) assay (radiometric filter-binding). Type of test: biochemical.

T1 sequence (P00519 64-515): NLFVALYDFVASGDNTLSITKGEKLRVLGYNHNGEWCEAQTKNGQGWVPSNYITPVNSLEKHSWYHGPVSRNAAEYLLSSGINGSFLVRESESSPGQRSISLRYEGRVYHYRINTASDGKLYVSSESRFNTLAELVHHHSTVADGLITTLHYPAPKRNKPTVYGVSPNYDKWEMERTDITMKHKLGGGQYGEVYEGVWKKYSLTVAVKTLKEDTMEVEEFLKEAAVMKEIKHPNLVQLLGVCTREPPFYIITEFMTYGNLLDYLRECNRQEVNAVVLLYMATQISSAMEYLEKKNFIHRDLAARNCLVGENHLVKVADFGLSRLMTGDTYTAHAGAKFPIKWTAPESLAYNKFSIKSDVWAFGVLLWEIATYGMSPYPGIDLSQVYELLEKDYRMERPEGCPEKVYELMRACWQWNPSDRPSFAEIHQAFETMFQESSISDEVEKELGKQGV

As for `CN(CCO)c1ncc(C(=O)Nc2ccc(SC(F)(F)F)cc2)cc1-c1cncnc1` [Example 192, 6-((2-Hydroxyethyl)(methyl)amino)-5-(pyrimidin-5-yl)-N-(4-((trifluoromethyl)thio)phenyl)nicotinamide], the IC50 on ABL1 (64-515) [1] worked out at 1.3 nM; at ABL1 (64-515) [2] it was 2 nM.

Turning to `CN(CCO)c1ncc(C(=O)Nc2ccc(SC(F)(F)F)cc2)cc1-c1cncc(F)c1` [Example 193, 5′-Fluoro-2-((2-hydroxyethyl)(methyl)amino)-N-(4-((trifluoromethyl)thio)phenyl)-[3,3′-bipyridine]-5-carboxamide], the IC50 worked out at 0.4 nM at ABL1 (64-515) [1] and 2.3 nM at ABL1 (64-515) [2].

With `CN(CCO)c1ncc(C(=O)Nc2ccc(SC(F)(F)F)cc2)cc1-c1cncc(C#N)c1` [Example 194, 5′-Cyano-2-((2-hydroxyethyl)(methyl)amino)-N-(4-((trifluoromethyl)thio)phenyl)-[3,3′-bipyridine]-5-carboxamide], the 50% inhibitory concentration (IC50) on ABL1 (64-515) [1] worked out at 1.4 nM; at ABL1 (64-515) [2], 5 nM.

Turning to `CCN(CCO)c1ncc(C(=O)Nc2ccc(SC(F)(F)F)cc2)cc1-c1cncnc1` [Example 195, 6-(Ethyl(2-hydroxyethyl)amino)-5-(pyrimidin-5-yl)-N-(4-((trifluoromethyl)thio)phenyl)nicotinamide], the values for the IC50 at ABL1 (64-515) [1] and on ABL1 (64-515) [2] were below 0.13 nM and 3 nM, respectively.

On to `CCN(CCO)c1ncc(C(=O)Nc2ccc(SC(F)(F)F)cc2)cc1-c1cncc(F)c1` [Example 196, 2-(Ethyl(2-hydroxyethyl)amino)-5′-fluoro-N-(4-((trifluoromethyl)thio)phenyl)-[3,3′-bipyridine]-5-carboxamide], for which the figures for the IC50 at ABL1 (64-515) [1] and on ABL1 (64-515) [2] were 0.7 nM and 5.1 nM, respectively.

With `CCN(CCO)c1ncc(C(=O)Nc2ccc(SC(F)(F)F)cc2)cc1-c1cncc(C#N)c1` [Example 197, 5′-Cyano-2-(ethyl(2-hydroxyethyl)amino)-N-(4-((trifluoromethyl)thio)phenyl)-[3,3′-bipyridine]-5-carboxamide], the IC50 on ABL1 (64-515) [1] worked out at 1.8 nM; on ABL1 (64-515) [2], 16 nM.

Regarding `O=C(Nc1ccc(OC(F)(F)F)c(F)c1)c1cnc(N2CC[C@@H](O)C2)c(-c2cncc(F)c2)c1` [Example 199, (R)-5′-Fluoro-N-(3-fluoro-4-(trifluoromethoxy)phenyl)-2-(3-hydroxypyrrolidin-1-yl)-[3,3′-bipyridine]-5-carboxamide], the 50% inhibitory concentration (IC50) at ABL1 (64-515) [1] was 1.2 nM; at ABL1 (64-515) [2], 3 nM.

`N#Cc1cncc(-c2cc(C(=O)Nc3ccc(OC(F)(F)F)c(F)c3)cnc2N2CC[C@@H](O)C2)c1` [Example 200, (R)-5′-Cyano-N-(3-fluoro-4-(trifluoromethoxy)phenyl)-2-(3-hydroxypyrrolidin-1-yl)-[3,3′-bipyridine]-5-carboxamide]: the 50% inhibitory concentration (IC50) on ABL1 (64-515) [1] came out at 1.2 nM; on ABL1 (64-515) [2], 4 nM.

Turning to `O=C(Nc1ccc(OC(F)(F)F)c(F)c1)c1cnc(N2CC[C@H](CO)C2)c(-c2cncc(F)c2)c1` [Example 202, (S)-5′-Fluoro-N-(3-fluoro-4-(trifluoromethoxy)phenyl)-2-(3-(hydroxymethyl)pyrrolidin-1-yl)-[3,3′-bipyridine]-5-carboxamide], the IC50 on ABL1 (64-515) [1] was 0.7 nM; on ABL1 (64-515) [2] it was 3.4 nM.

As for `N#Cc1cncc(-c2cc(C(=O)Nc3ccc(OC(F)(F)F)c(F)c3)cnc2N2CC[C@H](CO)C2)c1` [Example 203, (S)-5′-Cyano-N-(3-fluoro-4-(trifluoromethoxy)phenyl)-2-(3-(hydroxymethyl)pyrrolidin-1-yl)-[3,3′-bipyridine]-5-carboxamide], the IC50 is 0.9 nM on ABL1 (64-515) [1] and 1 nM at ABL1 (64-515) [2].

For the compound `O=C(Nc1ccc(OC(F)(F)F)c(Cl)c1)c1cnc(N2CC[C@@H](O)C2)c(-c2cncnc2)c1` [Example 204, (R)—N-(3-Chloro-4-(trifluoromethoxy)phenyl)-6-(3-hydroxypyrrolidin-1-yl)-5-(pyrimidin-5-yl)nicotinamide], the 50% inhibitory concentration (IC50) at ABL1 (64-515) [1] was 4.3 nM; on ABL1 (64-515) [2], below 3 nM.

Regarding `O=C(Nc1ccc(SC(F)(F)F)c(F)c1)c1cnc(N2CC[C@@H](O)C2)c(-c2cncnc2)c1` [Example 205, (R)—N-(3-Fluoro-4-((trifluoromethyl)thio)phenyl)-6-(3-hydroxypyrrolidin-1-yl)-5-(pyrimidin-5-yl)nicotinamide], the half-maximal inhibitory concentration (IC50) at ABL1 (64-515) [1] was below 0.13 nM; on ABL1 (64-515) [2] it was below 3 nM.

With `O=C(Nc1ccc(SC(F)(F)F)c(F)c1)c1cnc(N2CC[C@@H](O)C2)c(-c2cncc(F)c2)c1` [Example 206, (R)-5′-Fluoro-N-(3-fluoro-4-((trifluoromethyl)thio)phenyl)-2-(3-hydroxypyrrolidin-1-yl)-[3,3′-bipyridine]-5-carboxamide], the 50% inhibitory concentration (IC50) at ABL1 (64-515) [1] was found to be 0.5 nM; on ABL1 (64-515) [2] it was 6 nM.

Regarding `N#Cc1cncc(-c2cc(C(=O)Nc3ccc(SC(F)(F)F)c(F)c3)cnc2N2CC[C@@H](O)C2)c1` [Example 207, (R)-5′-Cyano-N-(3-fluoro-4-((trifluoromethyl)thio)phenyl)-2-(3-hydroxypyrrolidin-1-yl)-[3,3′-bipyridine]-5-carboxamide], the half-maximal inhibitory concentration (IC50) on ABL1 (64-515) [1] was 1.1 nM; at ABL1 (64-515) [2], 3 nM.

Turning to `O=C(Nc1ccc(C(F)(F)C(F)(F)F)cc1)c1cnc(N2CC[C@@H](O)C2)c(-c2cncc(F)c2)c1` [Example 209, (R)-5′-Fluoro-2-(3-hydroxypyrrolidin-1-yl)-N-(4-(perfluoroethyl)phenyl)-[3,3′-bipyridine]-5-carboxamide], the IC50 at ABL1 (64-515) [1] was 0.5 nM; on ABL1 (64-515) [2], below 3 nM.

As to `N#Cc1cncc(-c2cc(C(=O)Nc3ccc(C(F)(F)C(F)(F)F)cc3)cnc2N2CC[C@@H](O)C2)c1` [Example 210, (R)-5′-Cyano-2-(3-hydroxypyrrolidin-1-yl)-N-(4-(perfluoroethyl)phenyl)-[3,3′-bipyridine]-5-carboxamide], the half-maximal inhibitory concentration (IC50) at ABL1 (64-515) [1] worked out at 0.8 nM; on ABL1 (64-515) [2] it was 4 nM.

Take `O=C(Nc1ccc(SC(F)F)cc1)c1cnc(N2CC[C@@H](O)C2)c(-c2cncnc2)c1` [Example 211, (R)—N-(4-((Difluoromethyl)thio)phenyl)-6-(3-hydroxypyrrolidin-1-yl)-5-(pyrimidin-5-yl)nicotinamide]: the values for the IC50 at ABL1 (64-515) [1] and at ABL1 (64-515) [2] were 3.3 nM and 11 nM, respectively.

`Cc1ccc(-c2cc(C(=O)Nc3ccc(OC(F)(F)C(F)F)cc3)cnc2N2CC[C@@H](O)C2)cn1` [Example 213, (R)-2-(3-Hydroxypyrrolidin-1-yl)-6′-methyl-N-(4-(1,1,22-tetrafluoroethoxy)phenyl)-[3,3′-bipyridine]-5-carboxamide]: the half-inhibitory concentration (IC50) is 16 nM at ABL1 (64-515) [1] and 7 nM on ABL1 (64-515) [2].

With `O=C(Nc1ccc(S(=O)(=O)C(F)(F)F)cc1)c1cnc(N2CC[C@@H](O)C2)c(-c2cncnc2)c1` [Example 214, (R)-6-(3-Hydroxypyrrolidin-1-yl)-5-(pyrimidin-5-yl)-N-(4-((trifluoromethyl)sulfonyl)phenyl)nicotinamide], the IC50 on ABL1 (64-515) [1] is 8.1 nM; at ABL1 (64-515) [2] it was 8 nM.

In the case of `O=C(Nc1ccc(SC(F)(F)Cl)cc1)c1cnc(N2CC[C@@H](O)C2)c(-c2cncnc2)c1` [Example 217, (R)—N-(4-((Chlorodifluoromethyl)thio)phenyl)-6-(3-hydroxypyrrolidin-1-yl)-5-(pyrimidin-5-yl)nicotinamide], the IC50 at ABL1 (64-515) [1] is 0.4 nM; at ABL1 (64-515) [2], 2 nM.

Regarding `CC(C)(C)Oc1ccc(NC(=O)c2cnc(N3CC[C@@H](O)C3)c(-c3cncnc3)c2)cc1` [Example 219, (R)—N-(4-(tert-Butoxy)phenyl)-6-(3-hydroxypyrrolidin-1-yl)-5-(pyrimidin-5-yl)nicotinamide], the IC50 at ABL1 (64-515) [1] and on ABL1 (64-515) [2] was 16 nM each time.

For `O=C(Nc1ccc(OC(F)(F)C(F)(F)F)cc1)c1cnc(N2CC[C@@H](O)C2)c(-c2cncnc2)c1` [Example 220, (R)-6-(3-Hydroxypyrrolidin-1-yl)-N-(4-(perfluoroethoxy)phenyl)-5-(pyrimidin-5-yl)nicotinamide], the IC50 turned out to be 2.3 nM on ABL1 (64-515) [1] and 6 nM at ABL1 (64-515) [2].

On to `O=C(Nc1ccc(OC(F)(F)C(F)(F)F)cc1)c1cnc(N2CC[C@@H](O)C2)c(-c2cncc(F)c2)c1` [Example 221, (R)-5′-Fluoro-2-(3-hydroxypyrrolidin-1-yl)-N-(4-(perfluoroethoxy)phenyl)-[3,3′-bipyridine]-5-carboxamide], for which the IC50 at ABL1 (64-515) [1] was found to be 1.3 nM; at ABL1 (64-515) [2], 10 nM.

Turning to `N[C@]1(C(F)(F)F)CCN(c2ncc(C(=O)Nc3ccc(OC(F)(F)F)cc3)cc2-c2cncnc2)C1` [Example 223, (R)-6-(3-Amino-3-(trifluoromethyl)pyrrolidin-1-yl)-5-(pyrimidin-5-yl)-N-(4-(trifluoromethoxy)phenyl)nicotinamide], the IC50 at ABL1 (64-515) [1] stood at 10 nM; at ABL1 (64-515) [2], 0.2 nM.

Regarding `O=C(Nc1ccc(OC(F)(F)F)cc1)c1cnc(N2CCC(F)(F)C2)c(-c2cncnc2)c1` [Example 224, 6-(3,3-Difluoropyrrolidin-1-yl)-5-(pyrimidin-5-yl)-N-(4-(trifluoromethoxy)phenyl)nicotinamide], the half-inhibitory concentration (IC50) on ABL1 (64-515) [1] is 4.7 nM; at ABL1 (64-515) [2], 1.6 nM.

With `CN(C)[C@H]1CN(c2ncc(C(=O)Nc3ccc(OC(F)(F)F)cc3)cc2-c2cncnc2)C[C@@H]1O` [Example 225, 6-((3S,4S)-3-(Dimethylamino)-4-hydroxypyrrolidin-1-yl)-5-(pyrimidin-5-yl)-N-(4-(trifluoromethoxy)phenyl)nicotinamide], the figures for the IC50 on ABL1 (64-515) [1] and at ABL1 (64-515) [2] were 8.5 nM and 2 nM, respectively.

Take `N[C@@H]1[C@H]2CN(c3ncc(C(=O)Nc4ccc(OC(F)(F)F)cc4)cc3-c3cncnc3)C[C@@H]12` [Example 227]: the concentration for half-maximal inhibition (IC50) at ABL1 (64-515) [1] was 1.6 nM; on ABL1 (64-515) [2] it was 0.9 nM.

As for `O=C(Nc1ccc(OC(F)(F)F)cc1)c1cnc(N2Cc3cn[nH]c3C2)c(-c2cncnc2)c1` [Example 228], the values for the half-inhibitory concentration (IC50) on ABL1 (64-515) [1] and at ABL1 (64-515) [2] were 1.1 nM and 1 nM, respectively.

On to `O=C(Nc1ccc(OC(F)(F)F)cc1)c1cnc(N2CCNC3(CC3)C2)c(-c2cncnc2)c1` [Example 229], for which the IC50 on ABL1 (64-515) [1] turned out to be 2.4 nM; on ABL1 (64-515) [2] it was 1 nM.

Turning to `CN(C)C1CN(c2ncc(C(=O)Nc3ccc(OC(F)(F)F)cc3)cc2-c2cncnc2)C1` [Example 232], the IC50 at ABL1 (64-515) [1] came out at 5.3 nM; on ABL1 (64-515) [2] it was 6 nM.

With `O=C(Nc1ccc(OC(F)(F)F)cc1)c1cnc(N2CCCOCC2)c(-c2cncnc2)c1` [Example 233], the concentration for half-maximal inhibition (IC50) is 4 nM at ABL1 (64-515) [1] and 2.4 nM on ABL1 (64-515) [2].

As usually defined, the IC50 is the concentration needed to halve the response being measured.
